# Laboratory results taken from ChEMBL document CHEMBL3507680, “University of Dundee, Gates Library screen for HepG2 cell viability”.
# Assay: Human HepG2 cell viability assay in 384 well format
# Type: toxicity, cell-based
# Design: dose 125 nL, time 70.5 hour; cytotoxicity at 70.5 h: concentration not given beside the values
# Settings: HepG2 cells, read-out: Inhibition
row,SMILES,cytotoxicity at 70.5 h [%]
1,COc1ccc(NC(=O)NCC(C)N2CCc3ccccc32)cc1 (stereo not drawn),-11.4
2,CCN1CC2(CCN(C(=O)C(C)Oc3ccc(F)cc3F)CC2)OC1=O (stereo not drawn),-1.13
3,CC(C)[C@@H]1CN(C(=O)C2(c3ccccc3)CCN(C)CC2)C[C@H]1N(C)C,9.05
4,O=C(NCC1CC1)C1CCCN(c2cccc(C(F)(F)F)n2)C1 (stereo not drawn),19.6
5,CC(C)Nc1cccc(CC2CCN(C)C2)n1 (stereo not drawn),-5.89
6,COC(=O)c1cc(C(=O)N2CCc3ccc(F)cc3C2C)ccn1 (stereo not drawn),-0.61
7,Cn1ccnc1SCc1nc(C(C)(C)NC(=O)OC(C)(C)C)no1,12
8,Cc1cccc(CN2CCN(C(=O)[C@@H]3CSCN3C)CC2)c1,-13.3
9,CC(C)[C@@H]1CN(c2ccc(F)cn2)C[C@H]1NS(C)(=O)=O,12.1
10,CCOc1ncccc1C(=O)NC1CC(=O)N(CC(F)(F)F)C1 (stereo not drawn),-6.92
11,Cc1ccc(C2CN(C(=O)c3ccn(C)c(=O)c3)CCO2)nc1 (stereo not drawn),-7.64
12,CN(C)c1ncc2c(n1)C1(CCN(Cc3cccnc3)C1)COC2 (stereo not drawn),4.89
13,CCn1ccnc1CN1CCN(CCc2ccccn2)CC1C (stereo not drawn),-3.46
14,CNC(=O)N(Cc1c(F)cccc1F)C1CCCC1,-3.72
15,COc1ccc(Cl)c(-c2noc3ncn(CCC(=O)O)c(=O)c23)c1,-20.8
16,O=C(NCCNc1cnccn1)C1CCN(C(=O)N2CCCC2)CC1,2.17
17,O=C(CC1CCc2ccccc21)N1CCC(O)(c2cccnc2)CC1 (stereo not drawn),-9.82
18,O=C1NCCN1CCNc1cc(-c2ccncc2)nc2ccnn12,-10.3
19,CCN(CC)C(=O)[C@@H]1C[C@H](n2cc(-c3ccccn3)nn2)CN1,12
20,O=C(CCc1ccc2c(c1)CCO2)Nc1nnn[nH]1,-6.65
21,Cc1cccc(CNC(=O)NCC2CCN(Cc3ncc[nH]3)C2)c1 (stereo not drawn),-16.7
22,CC(C)c1noc(CNc2ccccc2CC(=O)N(C)C)n1,-2.98
23,CN(C)C(=O)NC1COC2(CCN(S(=O)(=O)c3ccccc3)CC2)C1 (stereo not drawn),-10.3

row,SMILES,cytotoxicity at 70.5 h [%]
1,Cc1[nH]ncc1C(=O)NCC(CO)Cc1ccc(Cl)cc1 (stereo not drawn),-5.24
2,NC(=O)c1cnn2c1NCC(CNCC1(c3ccccc3)CCC1)C2 (stereo not drawn),10.4
3,COCc1ccc(C(=O)N2CCOCC2c2ccc(C)o2)cc1 (stereo not drawn),-0.476
4,Cc1cc(=O)[nH]c(-n2nc(C)c(CCC(=O)NCc3cccs3)c2C)n1,-0.337
5,CC1=N[C@@]2(CC[C@@H]3CN(Cc4ccccc4C)C[C@@H]32)C(=O)N1CC1CC1,-9.24
6,COc1ccccc1S(=O)(=O)Nc1cnc(O)cc1C,-10.5
7,c1nc(N2CCCC2Cn2cncn2)c2ccsc2n1 (stereo not drawn),30.4
8,CC(Nc1nc(-c2ccncc2)nc2c1CCNC2)c1ccccc1 (stereo not drawn),-9.03
9,O=C(CNc1ccc(OCC2CCOCC2)cc1)NCc1ccco1,-20.8
10,O=C(NCCN1CCOCC1)c1ccc(-c2ccccc2)[nH]c1=O,-2.93
11,Cc1nccnc1N1CC[C@@H](NC(=O)c2cnccn2)[C@H](O)C1,-8.55
12,COc1ccccc1OCCNC(=O)NCC(C)C,-12.4
13,CCS(=O)(=O)NCC1OCCc2cn(CC3CCOCC3)nc21 (stereo not drawn),11.8
14,O=c1cnc2ccccc2n1CCCn1cccn1,24.6
15,O=C(Nc1ccc(Cl)cn1)C1CCN(CCc2ccccn2)CC1,-1.68
16,COCc1cncc2c1CCN(Cc1cccs1)C2,0.63
17,Cn1cc(CN2CCCCC2c2ccc(-c3cnn(C)c3)nc2)cn1 (stereo not drawn),-8.29
18,O=C(C1CCOCC1)N1CC[C@@](O)(c2ccccc2)[C@H]2CCCC[C@@H]21,24.9
19,CC(Cn1cncn1)NC(=O)Nc1ccc(F)cc1OCC1CC1 (stereo not drawn),-9.35
20,CC(C)C(C(=O)O)c1cccc(Cl)c1 (stereo not drawn),-7.66
21,Cc1cc(C)c(C(=O)N2CCN(c3ncccc3C#N)CC2)c(=O)[nH]1,1.08
22,c1cnc(NC2COC3(CCN(Cc4cc[nH]n4)CC3)C2)nc1 (stereo not drawn),-99.2
23,O=C(c1cccnc1)N1CCC2(CC1)CC(Oc1ccccc1)CO2 (stereo not drawn),26.5

row,SMILES,cytotoxicity at 70.5 h [%]
1,CC(NCc1ccccc1Cl)c1ccc2[nH]c(=O)[nH]c2c1 (stereo not drawn),7.48
2,O=C(NC1CC1)[C@H]1C[C@@H]2CCN(Cc3ccc4c(c3)OCO4)C[C@@H]2O1,-12.5
3,O[C@H]1[C@H](n2cc(-c3cccnc3)nn2)c2ccccc2C12CCNCC2,0.63
4,CCN(C)c1ccc(CNC(=O)c2cc(C(N)=O)cs2)cc1F,-8.22
5,Cc1nc(CCNC(=O)NC(C)Cn2cccn2)cs1 (stereo not drawn),-12.8
6,COc1cccc(CC(=O)N2CCCN(c3ccnc(C)c3)CC2)c1,-3.97
7,O=C(COC[C@@]12CCC[C@@H]1CN(C1CCCC1)C2)N1CCCC1,-1.08
8,O=C(NCCC1CN(Cc2c[nH]cn2)CCO1)c1ccccc1O (stereo not drawn),23
9,COc1cn(CC(=O)N2CCN(c3ccc(F)cc3)CC2)c(C)cc1=O,27.9
10,O=C1COC2(CCN(c3ncccn3)CC2)CN1Cc1ccccn1,-5.98
11,CCC1CN(Cc2nc(C(C)C)no2)CCC(=O)N1Cc1ccccc1 (stereo not drawn),22.7
12,CC(C)c1ccc(NC2CCCN(Cc3ccncc3)C2)cc1 (stereo not drawn),0.778
13,CN(C)c1ccc(C(=O)NCc2cccnc2-n2cncn2)cc1F,-17.5
14,O=C(c1cccc(F)c1F)N1CCn2c(nnc2C(F)(F)F)C1,-4.83
15,COC(=O)N1CCN(Cc2ccccc2C(C)(C)C#N)CC1,-5.92
16,CN1CCN(C(=O)[C@@H]2CCO[C@@H]3CCN(c4ncccn4)C[C@@H]32)CC1,-3.98
17,O=C(C1CCOCC1)N1C[C@H]2CC[C@@H]1CN(Cc1ccncc1)C2,-6.05
18,COC(=O)c1ccc(OC)c(OC23CCCN(CC2)C3)c1 (stereo not drawn),-8.44
19,Cc1nc(N2CCOCC2)nc2c1CCN(Cc1nccn1C)CC2,-11.2
20,Cc1cc(C)n(CC2CCCCN2CC(=O)Nc2nnc(C)s2)n1 (stereo not drawn),-2.39
21,O=C([C@H]1C[C@H]2OCC[C@H]2N(CC2CC2)C1)N1CCCC1,5.6
22,c1ccc2sc(N3CCC4(CCCN4Cc4ncc[nH]4)CC3)nc2c1,-7.49
23,Cc1ccc(CN2CC(C(=O)NC(C)C)C3(CCOCC3)C2)s1 (stereo not drawn),-11.4

row,SMILES,cytotoxicity at 70.5 h [%]
1,CCOc1nn(CC)cc1-c1nnc(SCC)n1C,-12.3
2,OCCC1(NCc2ccc(-n3cccn3)cc2)CCOCC1,-2.65
3,CCSc1ccc(C(=O)N2CCCC2C(=O)N2CCOCC2)cn1 (stereo not drawn),-12.5
4,CCCc1cc(CNC(=O)C2CCOc3ccccc3C2)on1 (stereo not drawn),2.98
5,COCC(=O)N1CCN(c2ccc(C(=O)OC)cc2)CC1C (stereo not drawn),20.1
6,CCOc1ccc(CNC(=O)c2cnc(OC)nc2)cc1,-2.49
7,CC(C)N1CCCC2(CCN(Cc3noc(C4CCCC4)n3)C2)C1=O (stereo not drawn),11
8,O=C1CC2(CCCCN2CC2CC2)CN1c1ccccc1 (stereo not drawn),-3.65
9,O=C(COCCOc1ccccc1)NC1CCN(c2ccccn2)CC1,-12.1
10,COc1cccc(OC)c1OCCN1C(=O)CCNC1=O,26.5
11,CC(=O)N1CCC(C(=O)c2cc(C)cnc2N)CC1,-15.5
12,CCn1ccnc1CN(C)C1CCCN(Cc2ccccc2F)C1 (stereo not drawn),-1.31
13,Cc1ccc(S(=O)(=O)N2CCc3nc(C4CCNCC4)ncc3C2)cc1,-8.7
14,CCc1oc(C(=O)OC)cc1Cn1cccc(C(F)(F)F)c1=O,-1.62
15,CC(C)(C)c1nnc(CN2CCN(C(=O)N3CCCCC3)CC2)o1,-3.76
16,COCCNC(=O)[C@H]1C[C@@H]2CCN(Cc3ccoc3)C[C@H]2O1,-15.5
17,Cn1c(CN2CCCC2)nnc1C1CCCN(C(=O)C2CCOCC2)C1 (stereo not drawn),-3.01
18,CCOCCCNc1nc2c(s1)c(C)nn2C,-5.29
19,Cc1ncsc1C(=O)N1CCCC1c1c(C)nn(C)c1Cl (stereo not drawn),-13.8
20,O=C(Cc1ccc(F)cc1)N1CCCCC1c1ccn2ccnc2n1 (stereo not drawn),-12
21,CCSCCNC(=O)c1cnc(-c2ccccc2)nc1O,7.82
22,CN(Cc1nc2c(cnn2C)c(=O)[nH]1)Cc1ccco1,7.12
23,CC(C)NC(=O)Cn1cc(-c2ccccc2)ncc1=O,-7.17

row,SMILES,cytotoxicity at 70.5 h [%]
1,O=C1OCCN1CCS(=O)(=O)c1cccc(Br)c1,-2.02
2,COCCN1CC(O)CN(C(=O)c2cccc(C(F)(F)F)c2)CC1=O (stereo not drawn),-0.767
3,Cc1nnc2n1CCN(Cc1ncc(-c3ccccc3)o1)C2,-9.8
4,CCCSCC(=O)Nc1ncn(CC(=O)NCc2ccccc2)n1,-5.44
5,CCOCC(=O)Nc1cc(-n2nnnc2C2CC2)ccc1F,0.6
6,CN1CCCc2cc(-c3cncn3CCNC3CCS(=O)(=O)C3)ccc21 (stereo not drawn),-4.36
7,Cc1cc(C)n(CC2CN(CC(=O)N3CCC3)CCO2)n1 (stereo not drawn),-13.4
8,Cc1ccc(CNC(=O)N2CCN(S(C)(=O)=O)CC2)n1C,-6.21
9,Cc1cc(C2CCCN(C(=O)COc3ccc(F)cc3)C2)n[nH]1 (stereo not drawn),-8.58
10,Cc1cccc(CN2CCc3[nH]nc(C(=O)N4CCOCC4)c3C2)n1,0.815
11,Cc1nc(-c2ccccc2)ccc1C(=O)N1CCn2c(C)nnc2C1,-11.8
12,O=C(NC1CC1)[C@@H]1CCO[C@@H]2CCN(C3CCCC3)C[C@H]21,-0.698
13,O=C(c1ccncc1)N1C[C@@H]2CC[C@H](C1)N(S(=O)(=O)c1cccnc1)C2,-5.9
14,CC(C)c1csc(C2CCCN(C(=O)Cn3ccccc3=O)C2)n1 (stereo not drawn),23.3
15,Cn1c(C(N)=O)ccc1-c1ccccc1,6.66
16,CN1C(=O)CCCC12CCCN(C(=O)c1ccoc1)C2 (stereo not drawn),-10.6
17,Cc1cccc(OCCC(=O)NC(C)c2nnc3n2CCC3)c1 (stereo not drawn),2.23
18,COc1ccc(C)c2c1N(C(=O)c1ccc3nnc(C)n3c1)CCC2,-2.94
19,COc1cc(C(=O)Nc2nc(C)no2)ccc1OC1CCCC1,-4.68
20,CC(O)Cc1cn(CC2CCN(c3nccc4occc34)CC2)nn1 (stereo not drawn),4.74
21,Cc1noc(C)c1CN1CCn2nc(CCC(=O)N3CCCC3)cc2C1,-2.3
